Earlier results, collected in patent US6676956B1, “Oil-in-water emulsion for protecting human organs against peroxidation” (Fresenius Kabi Austria GmbH, priority 1998, dated 2004).

What was measured:
[1] = per 1 g of the form
skeletal muscles = settings: 500 mg given directly before reperfusion

## Cc1c(C)c2c(c(C)c1O)CCC(C)(CCCC(C)CCCC(C)CCCC(C)C)O2 (single isomer, unassigned) [SRR-stereoisomer, 2,5,7, 8 tetramethyl-2-(4′,8′,12′-trimethyltridecyl)chroman-6-ol]
[1]
  effectiveness of 1 g corresponds to that of RRR-α-tocopherol: 0.31 g

## vitamin E
lipidperoxidation; 0.5 mg/day intravenously for 3 days vs 1.0 mg/day orally
  vitamin E concentration in the plasma: significantly higher
lipidperoxidation; 0.5 mg/day intravenously for 3 days vs control animals
  concentration of TBARS in the plasma: significantly lower

## CC(=O)Oc1c(C)c(C)c2c(c1C)CCC(C)(CCCC(C)CCCC(C)CCCC(C)C)O2 (racemic) [all-rac-tocopherolacetate]
Skeletal muscles
  increase in lipid peroxides in the serum (TBARS): prevented
  increase in serum creatine-phosphokinase during the reperfusion phase: suppressed
  ischaemia-reperfusion damage: reduced

## Cc1c(C)c2c(c(C)c1O)CCC(C)(CCCC(C)CCCC(C)CCCC(C)C)O2 (racemic) [all-rac-α-tocopherol, 2,5,7, 8 tetramethyl-2-(4′,8′,12′-trimethyltridecyl)chroman-6-ol]
[1]
  effectiveness of 1 g corresponds to that of RRR-α-tocopherol: 0.74 g
lipidperoxidation; 0.5 mg/day via central vein catheter for 3 days
  α-tocopherol level in the cell-associated aortic endothelium: significant increase
